Reference: a melting point compilation (Tetko et al.; mined from patent text by program, amines drawn as free bases though some values may be those of a salt)

Compound	melting point
CCOC(=O)C(C)(C)NC(=O)c1cccc(C2=NC(C)(C)Cc3cc(OCC)c4c(c32)CC(C)(C)O4)c1	155 to 156 °C
CC(=O)Nc1cc(F)c(OCC(F)F)cc1[N+](=O)[O-]	72 to 74 °C
CCNc1nc2ccc(CCc3cn4ccc(C)cc4n3)cc2o1	156 to 158 °C
OCC1(CO)COC2(CCCCC2)N1	117 to 119 °C
COC(=O)c1ccc2nc3c(C)sc(C)c3c(=O)n2c1	209 to 210 °C
CCC(=O)N(CCCc1ccccc1)C1CCc2c(cccc2NC(C)=O)C1 (centres undefined)	148 to 150 °C
Cc1c(-c2ccc(C(C)C)cc2)oc2c(C(=O)O)cccc2c1=O	216 to 220 °C
CC(C)[C@H](NC(=O)OCc1csc(N(C)C)n1)C(=O)N[C@@H](Cc1ccccc1)[C@@H](O)C[C@H](Cc1ccccc1)NC(=O)OCc1cncs1	157 to 159 °C
COC(=O)CNC(=O)c1ncccc1O	59 to 61 °C
Nc1ccc(Br)cc1C(=O)NCCCn1ccnc1	154 to 156 °C
c1ccc(SC2(Sc3ccccc3)CCCn3cc(-c4ccccc4)nc32)cc1	129 to 131 °C
CC(C)(O)Cn1c(CON=C2CCCC2)nc2c(N)nc3cccnc3c21	195 to 197 °C
CC(=O)Oc1c(C(=O)N2CCc3ccccc32)c(=O)n2c3c(cc(N)cc13)OCC2	220 to 225 °C
O=C(C=Cc1cccnc1)NCCCCC1CCN(C(c2ccccc2)C2CCCCC2)CC1 (centres undefined)	143 to 145 °C
N=C(N)NC(=O)c1cn([C@H](CO)CCc2ccccc2)cn1	111 to 113 °C
CCCCc1oc2ccccc2c1C(=O)NCC(=O)c1ccc2cc(OC)ccc2c1	129 to 131 °C
CCOc1ccnc(C(C)NC(=O)Nc2ccc(Br)cn2)c1F (centres undefined)	143 to 145 °C
O=P(O)(O)C1(P(=O)(O)O)Cc2ccccc2C1	55 to 57 °C
Cc1ncc(O)c(=O)[nH]1	> 300 °C
Cc1cc(-c2nc3cccnn3c2-c2ccnc(NC(=O)NC3CCCCC3)c2)ccc1F	229 to 230 °C
CCOC(=O)C1=C(C)Nc2ccnc(OC(C)C)c2C1c1cccc2nonc12 (centres undefined)	134 to 136 °C
CCCCCCCCNCC(O)COc1ccc(SC)cc1 (centres undefined)	79.5 to 80.5 °C
COCc1cnc2c(NC(=O)c3c(Cl)cccc3Cl)cccc2c1Cl	177 °C
COC(=O)c1ccc(OC2CCOC2=O)c([N+](=O)[O-])c1 (centres undefined)	99 to 101 °C
CCCCCCOC(Cc1ccc(OCCc2nc(-c3ccccc3)oc2C)c2ccsc12)C(=O)O (centres undefined)	79 to 82 °C

Compound	melting point
Cn1c(CCNS(C)(=O)=O)nnc1NCCCOc1cccc(CN2CCCCC2)c1	105 to 106 °C
Cc1cc(Oc2cccc([N+](=O)[O-])c2N(C)C(=O)OC(C)(C)C)cc(C)c1NC(=O)OC(C)(C)C	154 to 156 °C
COC(=O)c1cc(-c2ccc(S(C)(=O)=O)cc2)n(-c2ccc(Cl)cc2)n1	169 to 171 °C
NS(=O)(=O)c1ccc(-n2nc(C(F)F)cc2-c2nc3ccc(Cl)cc3s2)cc1	242 to 244 °C
C[C@H](Oc1ccc(-c2cccc(OCC(N)=O)c2)cc1)[C@H](O)CCc1cccnc1	120 to 122 °C
Cc1nc(-c2ccccc2C(F)(F)F)c(CC(Cl)C(=O)O)o1 (centres undefined)	158 to 159 °C
CCOC(=O)c1nnnn1Cc1ccccc1	58 to 61 °C
CCOC(=O)Nc1nc2cc(C(O)c3ccccc3)ccc2[nH]1 (centres undefined)	> 315 °C
c1ccc2c(c1)C[C@H]1CSC(=Nc3cnccn3)N1C2	140 °C
CN1CCN(Cc2ccc(C(=O)O)cc2)CC1	310 to 312 °C
Nc1cc(-n2cc(C(=O)O)c(=O)c3cc(F)c(F)c(Cl)c32)cnc1Cl	277 to 281 °C
CNC(=O)c1ccccc1Nc1nc(Nc2cc3c(cc2OC)N(C)C(=O)OCC3)ncc1C(F)(F)F	210 to 212 °C
Cc1cc(C(=O)O)cc(C)c1C(=O)O	> 300 °C
O=C(c1cccs1)c1cnn2c(-c3cccc(NCC=C(c4ccccc4)c4ccccc4)c3)ccnc12	156 to 158 °C
OCc1nc2n(n1)-c1cccnc1N(c1ccc(Cl)cc1)C2	240 to 245 °C
COc1ccc(C2=NN(C3CCN(C(=O)CCCOc4ccc5[nH]c(=O)ccc5c4)CC3)C(=O)CC2)cc1OC	169 to 171 °C
COc1ccc(Nc2ccnc3nc(C)c(O)cc23)cc1	169 to 174 °C
CCCC(=O)c1cnc2c(OCCOCCO)cccc2c1Nc1ccccc1C	144 to 146 °C
Cc1csc2[nH]cc(C#N)c(=O)c12	285 °C
CCOC(=O)c1c(CCl)nc2cc(OC)c(OC)cc2c1-c1ccc(Cl)c(Cl)c1	159 to 160 °C
Cc1cc(-n2nc(C#N)cc2-c2ccc(S(C)(=O)=O)cc2)ccc1F	144 °C
O=C(O)C(Cc1ccccc1)Nc1cc(-c2ccc(OCc3ccccc3)nc2)ncn1 (centres undefined)	130 to 133 °C
CCCCC(c1cccc(C(F)(F)F)c1)n1ccc2cc(-c3ccccc3-c3nn[nH]n3)ccc21 (centres undefined)	75 to 80 °C
COc1ccc(C)c(N2CCN(C(=O)N(C)c3cc(C)c(C)nc3OC)CC2)c1	91 to 93 °C
